The text below walks through data of ChEMBL document CHEMBL5137037, “Phage Display Selected Cyclic Peptide Inhibitors of Kallikrein-Related Peptidases 5 and 7 and Their In Vivo Delivery to the Skin” (J Med Chem, 2022).

In one data set the target is Kallikrein-7 (Homo sapiens, UniProt P49862). Kind of data set: Inhibition of C-terminal poly-His-tagged human recombinant KLK7 (30 to 253 residues) transfected in CHO cells assessed as inhibition constant using KHLY-pNA as fluorogenic substrate incubated for 30 mins by fluorescence plate reader assay. It is filed as cell-based.
A further data set has as its target Albumin (Homo sapiens, UniProt P02768). The data set can be described thus: Binding affinity to human serum albumin by fluorescence polarization assay. On the technique in general: Polarisation of emitted light reports the rotation of a fluorescent probe.
The nature of data set [1]: Stability of the compound in human plasma assessed as half life […] by LC-MS analysis. It is filed as ADME, cell-free.
For a further data set, the target named is T1, Kallikrein-5 (Homo sapiens, UniProt Q9Y337).
T1 sequence (Q9Y337 whole entry): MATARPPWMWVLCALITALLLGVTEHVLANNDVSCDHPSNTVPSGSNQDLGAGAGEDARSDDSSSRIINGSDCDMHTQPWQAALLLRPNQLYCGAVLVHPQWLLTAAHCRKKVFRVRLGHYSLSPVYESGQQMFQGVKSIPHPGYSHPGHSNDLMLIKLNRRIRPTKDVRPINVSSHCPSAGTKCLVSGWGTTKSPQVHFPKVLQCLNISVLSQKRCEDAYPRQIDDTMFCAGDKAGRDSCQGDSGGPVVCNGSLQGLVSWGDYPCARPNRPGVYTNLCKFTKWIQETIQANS
The data set can be described thus: Inhibition of C-terminal poly-His-tagged human recombinant KLK5 (30 to 293 residues) transfected in CHO cells assessed as inhibition constant using Boc-VPR-AMC as fluorogenic substrate incubated for 30 mins by fluorescence plate reader assay. It is filed as cell-based.

Numbered stars: 1 amine (or outer) side, 2 acyl side, 3 side chain; on linkers, the order of the positions; unused ones are H or OH. Bridge positions count the residues as written; N and C are the ends. Peptide text beside a SMILES is read from it. Pyridine(2,6-diCH2) = c1cc(C[*:1])nc(C[*:2])c1; CH2COCH2 = O=C(C[*:1])C[*:2]

Sequence of Kallikrein-7 (P49862 whole entry, the tested form may be a part): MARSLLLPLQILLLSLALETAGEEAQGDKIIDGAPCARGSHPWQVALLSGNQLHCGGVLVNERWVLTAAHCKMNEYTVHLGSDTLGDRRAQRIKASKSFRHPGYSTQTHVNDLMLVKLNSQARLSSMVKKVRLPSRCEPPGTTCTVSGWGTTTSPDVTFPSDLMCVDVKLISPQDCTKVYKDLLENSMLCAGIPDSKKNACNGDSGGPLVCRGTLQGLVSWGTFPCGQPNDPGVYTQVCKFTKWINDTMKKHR
Sequence of Albumin (P02768 whole entry): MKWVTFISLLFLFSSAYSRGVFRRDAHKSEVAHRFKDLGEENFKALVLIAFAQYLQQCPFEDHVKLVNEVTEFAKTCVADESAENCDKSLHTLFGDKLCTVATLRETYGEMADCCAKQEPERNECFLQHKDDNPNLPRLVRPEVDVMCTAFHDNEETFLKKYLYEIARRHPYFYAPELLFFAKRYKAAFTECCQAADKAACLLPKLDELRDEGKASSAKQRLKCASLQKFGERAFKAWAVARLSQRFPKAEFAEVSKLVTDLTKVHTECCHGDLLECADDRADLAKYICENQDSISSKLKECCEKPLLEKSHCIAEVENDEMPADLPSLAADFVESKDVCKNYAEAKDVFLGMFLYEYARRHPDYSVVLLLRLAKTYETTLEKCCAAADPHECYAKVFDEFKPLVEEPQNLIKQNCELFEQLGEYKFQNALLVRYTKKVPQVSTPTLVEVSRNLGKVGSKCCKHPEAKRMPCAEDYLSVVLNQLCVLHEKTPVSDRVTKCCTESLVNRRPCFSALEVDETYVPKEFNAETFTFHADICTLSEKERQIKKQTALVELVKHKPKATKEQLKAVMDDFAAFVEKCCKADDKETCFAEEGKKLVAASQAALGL

As for `CC(C)C[C@@H]1NC(=O)[C@H](Cc2ccc(O)cc2)NC(=O)[C@H](CC(C)C)NC(=O)[C@@H](NC(=O)[C@@H]2CCCN2)CSCC(=O)CSC[C@@H](C(=O)N[C@@H](CO)C(=O)O)NC(=O)[C@H](CCCNC(=N)N)NC(=O)[C@H](C)NC1=O` (H-PCLYLARCS-OH; linker 2-8 via CH2COCH2), the Ki at Kallikrein-7 (cho) turned out to be 16 nM. At Albumin, this compound gave a dissociation constant Kd of 39 nM. Further, in data set [1], the half-life is under 0.0833 h.
Take `CCCCCCCCCCCCCCCC(=O)NCCCC[C@H](NC(=O)[C@H](CCC(=O)O)NC(=O)[C@H](Cc1ccc(O)cc1)NC(=O)[C@H](CCC(=O)O)NC(=O)COCCOCCNC(=O)c1ccc(-c2c3ccc(=O)cc-3oc3cc(O)ccc23)c(C(=O)O)c1)C(=O)N[C@@H](CCC(=O)O)C(=O)N[C@@H](Cc1ccc(O)cc1)C(=O)N[C@@H](CCC(=O)O)C(=O)NCCOCCOCC(=O)N1CCC[C@H]1C(=O)N[C@H]1CSCC(=O)CSC[C@@H](C(=O)N[C@@H](CO)C(N)=O)NC(=O)[C@H](CCCNC(=N)N)NC(=O)[C@H](C)NC(=O)[C@H](CC(C)C)NC(=O)[C@H](Cc2ccc(O)cc2)NC(=O)[C@H](CC(C)C)NC1=O`: the Ki on Kallikrein-7 was found to be 106 nM. The Kd on Albumin was found to be 168 nM.
Regarding `CCCCCCCCCCCCCCCC(=O)NCCCC[C@H](NC(=O)[C@H](CCC(=O)O)NC(=O)[C@H](Cc1ccc(O)cc1)NC(=O)[C@H](CCC(=O)O)NC(=O)COCCOCCNC(=O)c1ccc(-c2c3ccc(=O)cc-3oc3cc(O)ccc23)c(C(=O)O)c1)C(=O)N[C@@H](CCC(=O)O)C(=O)N[C@@H](Cc1ccc(O)cc1)C(=O)N[C@@H](CCC(=O)O)C(=O)NCCOCCOCC(=O)NCCCC[C@H](NC(=O)CNC(=O)[C@@H]1CSCC(=O)CSC[C@H](NC(=O)[C@@H]2CCCN2)C(=O)N[C@@H](CC(C)C)C(=O)N[C@@H](Cc2ccc(O)cc2)C(=O)N[C@@H](CC(C)C)C(=O)N[C@@H](C)C(=O)N[C@@H](CCCNC(=N)N)C(=O)N1)C(=O)NCC(N)=O`, on Kallikrein-7, the Ki worked out at 31 nM. Also, the equilibrium dissociation constant (Kd) at Albumin turned out to be 164 nM. For the same compound, the half-life in data set [1] is 0.4 h.
As to `C[C@@H](O)[C@@H]1NC(=O)[C@@H](NC(=O)CN)CSCC(=O)CSC[C@@H](C(=O)O)NC(=O)[C@@H]2CCCN2C(=O)[C@H](Cc2ccc(O)cc2)NC(=O)[C@H](CCC(N)=O)NC(=O)[C@H](CCCNC(=N)N)NC1=O` (H-GCTRQYPC-OH; linker 2-8 via CH2COCH2), the Kd at Albumin is 39 nM. Besides, on Kallikrein-5, the Ki amounted to 2.2 nM. The half-life in data set [1] is under 0.0833 h.
`CCCCCCCCCCCCCCCC(=O)NCCCC[C@H](NC(=O)[C@H](CCC(=O)O)NC(=O)[C@H](Cc1ccc(O)cc1)NC(=O)[C@H](CCC(=O)O)NC(=O)COCCOCCNC(=O)c1ccc(-c2c3ccc(=O)cc-3oc3cc(O)ccc23)c(C(=O)O)c1)C(=O)N[C@@H](CCC(=O)O)C(=O)N[C@@H](Cc1ccc(O)cc1)C(=O)N[C@@H](CCC(=O)O)C(=O)NCCOCCOCC(=O)NCCCC[C@H](NC(=O)CNC(=O)[C@@H]1CSCC(=O)CSC[C@H](NC(=O)[C@@H]2CCCN2)C(=O)N[C@@H](CC(C)C)C(=O)N[C@@H](Cc2ccc(O)cc2)C(=O)N[C@@H](CCCC)C(=O)N[C@@H](C)C(=O)N[C@@H](CCCCNC(=N)N)C(=O)N1)C(=O)NCC(N)=O`: the half-life in data set [1] is 4 h.
Regarding `CC(C)[C@H](NC(=O)[C@H]1CSCc2cccc(n2)CSC[C@@H](NC(=O)[C@H](CO)NC(=O)CNC(=O)[C@@H]2CCCN2C(=O)[C@@H](NC(=O)[C@H](CO)NC(=O)[C@H](CC(=O)O)NC(=O)[C@@H]2CSCc3cccc(n3)CSC[C@H](NC(=O)CN)C(=O)N[C@@H]([C@@H](C)O)C(=O)N[C@@H](CCCNC(=N)N)C(=O)N[C@@H](CCC(N)=O)C(=O)N[C@@H](Cc3c[nH]c4ccccc34)C(=O)N3CCC[C@H]3C(=O)N2)C(C)C)C(=O)N[C@@H]([C@@H](C)O)C(=O)N1)C(=O)O`, the Ki on Kallikrein-5 (cho) was 2.7 nM.
For `CC(C)C[C@@H]1NC(=O)[C@@H](NC(=O)[C@H](CCC(N)=O)NC(=O)[C@@H]2CCCN2C(=O)[C@H](CC(N)=O)NC(=O)[C@H](C)NC(=O)[C@@H]2CSCc3cccc(n3)CSC[C@H](NC(=O)[C@H](C)N)C(=O)N[C@@H]([C@@H](C)O)C(=O)N[C@@H](CCCNC(=N)N)C(=O)N[C@@H](CCC(=O)O)C(=O)N[C@@H](Cc3ccc(O)cc3)C(=O)N[C@@H](CC(N)=O)C(=O)N3CCC[C@H]3C(=O)N[C@@H](CCC(N)=O)C(=O)N2)CSCc2cccc(n2)CSC[C@@H](C(=O)N[C@@H](Cc2cnc[nH]2)C(=O)O)NC1=O`, the Ki at Kallikrein-5 worked out at 6.1 nM.
Consider `CCCCCCCCCCCCCCCC(=O)NCCCC[C@H](NC(=O)[C@H](CCC(=O)O)NC(=O)[C@H](Cc1ccc(O)cc1)NC(=O)[C@H](CCC(=O)O)NC(=O)COCCOCCNC(=O)c1ccc(-c2c3ccc(=O)cc-3oc3cc(O)ccc23)c(C(=O)O)c1)C(=O)N[C@@H](CCC(=O)O)C(=O)N[C@@H](Cc1ccc(O)cc1)C(=O)N[C@@H](CCC(=O)O)C(=O)NCCOCCOCC(=O)NCCCC[C@H](NC(=O)CNC(=O)[C@@H]1CSCC(=O)CSC[C@H](NC(=O)[C@@H]2CCCN2)C(=O)N[C@@H](CC(C)C)C(=O)N[C@@H](Cc2ccc(O)cc2)C(=O)N[C@@H](CCCC)C(=O)N[C@@H](C)C(=O)NCC(=O)N1)C(=O)NCC(N)=O`, for which the half-life in data set [1] is over 96 h.
For `CCCCCCCCCCCCCCCC(=O)NCCCC[C@H](NC(=O)[C@H](CCC(=O)O)NC(=O)[C@H](Cc1ccc(O)cc1)NC(=O)[C@H](CCC(=O)O)NC(=O)COCCOCCNC(=O)c1ccc(-c2c3ccc(=O)cc-3oc3cc(O)ccc23)c(C(=O)O)c1)C(=O)N[C@@H](CCC(=O)O)C(=O)N[C@@H](Cc1ccc(O)cc1)C(=O)N[C@@H](CCC(=O)O)C(=O)NCCOCCOCC(=O)NCCCC[C@H](NC(=O)CNC(=O)[C@@H]1CSCC(=O)CSC[C@H](NC(=O)[C@@H]2CCCN2)C(=O)N[C@@H](CC(C)C)C(=O)N[C@@H](Cc2ccc(O)cc2)C(=O)N[C@@H](CCCC)C(=O)N[C@@H](C)C(=O)N[C@@H](CCCNC(N)=O)C(=O)N1)C(=O)NCC(N)=O`, the half-life in data set [1] was over 96 h.
In the case of `C[C@@H](O)[C@@H]1NC(=O)[C@@H](NC(=O)CN)CSCC(=O)CSC[C@@H](C(=O)O)NC(=O)[C@@H]2CCCN2C(=O)[C@H](Cc2ccc(O)cc2)NC(=O)[C@H](CCC(=O)O)NC(=O)[C@H](CCCNC(=N)N)NC1=O`, the inhibition constant (Ki) on Kallikrein-5 is 3.2 nM.
The same measure, in the same setting: in the case of `C[C@@H](O)[C@@H]1NC(=O)[C@@H](NC(=O)CN)CSCC(=O)CSC[C@@H](C(=O)O)NC(=O)[C@@H]2CCCN2C(=O)[C@H](Cc2c[nH]c3ccccc23)NC(=O)[C@H](CCC(=O)O)NC(=O)[C@H](CCCNC(=N)N)NC1=O` it was 5.1 nM; in that of `CSCC[C@H](N)C(=O)N[C@H]1CSCC(=O)CSC[C@@H](C(=O)N[C@H]2CSCC(=O)CSC[C@@H](C(=O)N3CCC[C@H]3C(=O)O)NC(=O)[C@H]([C@@H](C)O)NC(=O)[C@H](CCCNC(=N)N)NC(=O)[C@H](CCC(N)=O)NC(=O)[C@@H]3CCCN3C2=O)NC(=O)[C@H](CC(C)C)NC(=O)[C@H](CO)NC(=O)[C@@H]2CCCN2C(=O)[C@H](CC(=O)O)NC(=O)[C@H](Cc2c[nH]c3ccccc23)NC(=O)[C@H](CCC(N)=O)NC(=O)[C@H](CCCNC(=N)N)NC(=O)[C@H](CO)NC1=O`, 24 nM; in that of `CC(C)[C@@H]1NC(=O)[C@H](CCC(N)=O)NC(=O)[C@H](CCCNC(=N)N)NC(=O)[C@H]([C@@H](C)O)NC(=O)[C@@H](NC(=O)CN)CSCc2cccc(n2)CSC[C@@H](C(=O)N[C@@H](CCC(N)=O)C(=O)N[C@@H](CCC(N)=O)C(=O)N[C@H](C(=O)N2CCC[C@H]2C(=O)N[C@@H](C)C(=O)N[C@H]2CSCc3cccc(n3)CSC[C@@H](C(=O)N[C@@H](CC(N)=O)C(=O)O)NC(=O)[C@H](C)NC(=O)[C@H](CO)NC(=O)[C@@H]3CCCN3C2=O)[C@@H](C)O)NC1=O` (H-GCTRQVCQQTPACPSACN-OH; linker 2-7, 13-17 via Pyridine(2,6-diCH2)), 7 nM.
As for `CCCCCCCCCCCCCCCC(=O)NCCCC[C@H](NC(=O)[C@H](CCC(=O)O)NC(=O)[C@H](Cc1ccc(O)cc1)NC(=O)[C@H](CCC(=O)O)NC(=O)COCCOCCNC(=O)c1ccc(-c2c3ccc(=O)cc-3oc3cc(O)ccc23)c(C(=O)O)c1)C(=O)N[C@@H](CCC(=O)O)C(=O)N[C@@H](Cc1ccc(O)cc1)C(=O)N[C@@H](CCC(=O)O)C(=O)NCCOCCOCC(=O)N[C@H]1CSCC(=O)CSC[C@@H](C(N)=O)NC(=O)[C@@H]2CCCN2C(=O)[C@H](Cc2ccc(O)cc2)NC(=O)[C@H](CCC(N)=O)NC(=O)[C@H](CCCNC(=N)N)NC(=O)[C@H]([C@@H](C)O)NC1=O`, at Albumin, binding was put at a Kd of 118 nM. Moreover, the Ki on Kallikrein-5 is 23 nM.
As for `C[C@@H](O)[C@@H]1NC(=O)[C@@H](NC(=O)CN)CSCC(=O)CSC[C@@H](C(=O)O)NC(=O)[C@@H]2CCCN2C(=O)[C@H](Cc2c[nH]c3ccccc23)NC(=O)[C@H](CCC(N)=O)NC(=O)[C@H](CCCNC(=N)N)NC1=O`, the Ki at Kallikrein-5 worked out at 3.6 nM.
Still for that read-out and setting: the result for `CC(C)C[C@@H]1NC(=O)[C@@H](NC(=O)[C@H](CCC(N)=O)NC(=O)[C@@H]2CCCN2C(=O)[C@H](CC(N)=O)NC(=O)[C@H](C)NC(=O)[C@@H]2CSCC(=O)CSC[C@H](NC(=O)[C@H](C)N)C(=O)N[C@@H]([C@@H](C)O)C(=O)N[C@@H](CCCNC(=N)N)C(=O)N[C@@H](CCC(=O)O)C(=O)N[C@@H](Cc3ccc(O)cc3)C(=O)N[C@@H](CC(N)=O)C(=O)N3CCC[C@H]3C(=O)N[C@@H](CCC(N)=O)C(=O)N2)CSCC(=O)CSC[C@@H](C(=O)N[C@@H](Cc2cnc[nH]2)C(=O)O)NC1=O` reads 28 nM.

In general, Ki refers to a dissociation constant, usually derived from enzyme kinetics or from competition with a known ligand. Usually Kd stands for the concentration at which binding is half-saturated. One may read the half-life as the time needed for the level to fall by half in the phase considered.
